Laboratory results reported in ChEMBL document CHEMBL1131357, “New bronchodilators selected by molecular topology” (1998).

What was measured:
Format in all cases: functional
[1] = organism: Cavia porcellus; test: Percent relaxation using isolated guinea pig trachea.
[2] = organism: Cavia porcellus; test: Percent relaxation of isolated guinea pig trachea.
[3] = organism: Cavia porcellus; test: pD2 value (pD2 = -log EC50) was calculated using indometazine in guinea pig trachea
[4] = organism: Cavia porcellus; test: Compound was evaluated for the percent of relaxation using isolated guinea pig trachea
[5] = organism: Cavia porcellus; test: Compound was evaluated for the percent of relaxation using isolated guinea pig trachea at a dose of 1 mM

| SMILES | Relaxation [1] | pD2 [2] | pD2 [3] | Relaxation [4] | Emax at 1000 µM [5] |
| --- | --- | --- | --- | --- | --- |
| O=C(O)c1ccc2c(c1)S(=O)(=O)c1ccccc1C2=O | 85% | 4.65 | – | – | – |
| N#Cc1ccc2c(c1)S(=O)(=O)c1ccccc1C2=O | 13% | 4.53 | – | – | – |
| Cc1nc2c(o1)CC1C=CC=CC1=CC2O (stereo not drawn) | 37% | 4.8 | – | – | – |
| Cc1ccc(S(=O)(=O)N2CCCSCC2)cc1 | 0% | – | – | – | – |
| COC(=O)C1C2CCC(O2)C1C(=O)OC (stereo not drawn) | 28% | 4.8 | – | – | – |
| C[C@]12CCC(=O)C=C1CCCC2=O | 22% | 4.5 | – | – | – |
| NC(=O)c1ccc2c(c1)S(=O)(=O)c1ccccc1C2=O | 18% | 5.69 | – | – | – |
| O=C(CN1CCNCC1)N1CCCC1 | 59% | 4.6 | – | – | – |
| CC(=O)CC(c1ccc([N+](=O)[O-])cc1)c1c(O)c2ccccc2oc1=O (stereo not drawn) [ACENOCOUMAROL] | 69% | 4.55 | – | – | – |
| Nc1nccs1 [AMINOTHIAZOLE] | 19% | 4.4 | – | – | – |
| Oc1ccc2c(O)c3ccccc3cc2c1O [ANTHRAROBIN] | 92% | 5.69 | – | – | – |
| Cc1c(C2(c3cc(Br)c(O)c(Br)c3C)OS(=O)(=O)c3ccccc32)cc(Br)c(O)c1Br [BROMCRESOL GREEN] | 21% | 4.5 | – | – | – |
| O=S1(=O)OC(c2cc(Br)c(O)c(Br)c2)(c2cc(Br)c(O)c(Br)c2)c2ccccc21 [BROMOPHENOL BLUE] | 51% | 4.5 | – | – | – |
| O=C(O)c1cn(C2CC2)c2cc(N3CCNCC3)c(F)cc2c1=O [CIPROFLOXACIN] | 0% | – | – | – | – |
| O=C1c2ccccc2S(=O)(=O)c2cc(-c3nn[nH]n3)ccc21 [DOXANTRAZOLE] | 91% | 5.5 | – | – | – |
| OC(Cn1cncn1)(Cn1cncn1)c1ccc(F)cc1F [FLUCONAZOLE] | -51% | – | – | – | – |
| COC1=CC(=O)C[C@@H](C)[C@]12Oc1c(Cl)c(OC)cc(OC)c1C2=O [GRISEOFULVIN] | 74% | 4.8 | – | – | – |
| CCCCC(CC)CN1CN(CC(CC)CCCC)CC(C)(N)C1 (stereo not drawn) [HEXETIDINE] | -94% | – | – | – | – |
| Cc1occc(=O)c1O [MALTOL] | 16% | 5.25 | – | – | – |
| CCN(CC)c1ccc2nc3c4ccccc4c(=O)cc-3oc2c1 [NILE RED] | 0% | – | – | – | – |
| CCn1cc(C(=O)O)c(=O)c2cc(F)c(N3CCNCC3)cc21 [NORFLOXACIN] | 0% | – | – | – | – |
| CCCCC1C(=O)N(c2ccccc2)N(c2ccccc2)C1=O [PHENYLBUTAZONE] | 28% | – | 4.69 | – | – |
| CCn1cc(C(=O)O)c(=O)c2cnc(N3CCCC3)nc21 [PIROMIDIC ACID] | 25% | 5.3 | – | – | – |
| Cc1c(C(C)C)c(=O)n(-c2ccccc2)n1C [PROPYPHENAZONE] | 29% | 5.69 | – | – | – |
| C[n+]1cc2c3c(ccc2c2ccc4cc5c(cc4c21)OCO5)OCO3 [SANGUINARIUM] | -89% | – | – | – | – |
| CN1C(C(=O)Nc2ccccn2)=C(O)c2sccc2S1(=O)=O [TENOXICAM] | 32% | – | 5.2 | – | – |
| Cn1c(=O)c2nc[nH]c2n(C)c1=O.O [THEOPHYLLINE] | – | 4.69 | – | 77.1% | 100% |
